Common to all, as to type: cell-based
For assay [1], the target named is T1, CqDOP2 (Culex quinquefasciatus, UniProt A0A0B5H0X6).
T1 construct: gene DOP2; receptor expressed in HEK-293 cells, from authors' previous work
T1 sequence (A0A0B5H0X6 1-479): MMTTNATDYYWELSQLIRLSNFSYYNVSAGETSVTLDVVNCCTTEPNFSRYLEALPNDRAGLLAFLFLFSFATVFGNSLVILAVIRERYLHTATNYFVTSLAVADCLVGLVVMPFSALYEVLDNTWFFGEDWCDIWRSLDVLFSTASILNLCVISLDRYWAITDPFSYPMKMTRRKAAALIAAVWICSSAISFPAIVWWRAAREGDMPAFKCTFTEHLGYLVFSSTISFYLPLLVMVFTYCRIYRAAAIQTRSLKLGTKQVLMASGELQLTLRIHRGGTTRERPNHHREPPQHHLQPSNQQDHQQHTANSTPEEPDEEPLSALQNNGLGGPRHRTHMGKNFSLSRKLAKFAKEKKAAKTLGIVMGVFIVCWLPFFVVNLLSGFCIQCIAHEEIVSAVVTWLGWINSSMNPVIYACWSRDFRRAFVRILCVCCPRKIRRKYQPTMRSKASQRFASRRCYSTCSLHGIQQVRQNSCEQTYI
The assay is described as follows: IP-One HTRF IP1 accumulation, inhibition of dopamine response, HEK-293.

In assay [2] the target is T2, AgDOP2 (Anopheles gambiae, UniProt A0A1W5KQ45).
T2 sequence (A0A1W5KQ45 1-495): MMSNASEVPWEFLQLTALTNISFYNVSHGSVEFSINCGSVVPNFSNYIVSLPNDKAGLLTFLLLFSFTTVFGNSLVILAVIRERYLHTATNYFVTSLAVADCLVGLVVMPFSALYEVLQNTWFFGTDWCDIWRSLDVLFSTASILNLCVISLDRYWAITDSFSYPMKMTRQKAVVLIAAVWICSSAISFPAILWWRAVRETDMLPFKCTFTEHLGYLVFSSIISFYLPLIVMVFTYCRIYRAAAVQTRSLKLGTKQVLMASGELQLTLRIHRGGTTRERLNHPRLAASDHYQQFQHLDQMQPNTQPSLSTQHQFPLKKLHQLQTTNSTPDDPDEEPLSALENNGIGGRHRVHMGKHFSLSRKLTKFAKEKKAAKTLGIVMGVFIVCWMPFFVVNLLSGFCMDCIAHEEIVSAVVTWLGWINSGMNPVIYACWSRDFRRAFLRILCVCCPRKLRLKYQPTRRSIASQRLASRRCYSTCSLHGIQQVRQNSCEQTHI
The description is as above.

The target in assay [3] is T3, AaDOP2 (Aedes aegypti, UniProt H6D5H2).
T3 construct: gene dop2; receptor expressed in HEK-293 cells, from authors' previous work
T3 sequence (H6D5H2 1-476): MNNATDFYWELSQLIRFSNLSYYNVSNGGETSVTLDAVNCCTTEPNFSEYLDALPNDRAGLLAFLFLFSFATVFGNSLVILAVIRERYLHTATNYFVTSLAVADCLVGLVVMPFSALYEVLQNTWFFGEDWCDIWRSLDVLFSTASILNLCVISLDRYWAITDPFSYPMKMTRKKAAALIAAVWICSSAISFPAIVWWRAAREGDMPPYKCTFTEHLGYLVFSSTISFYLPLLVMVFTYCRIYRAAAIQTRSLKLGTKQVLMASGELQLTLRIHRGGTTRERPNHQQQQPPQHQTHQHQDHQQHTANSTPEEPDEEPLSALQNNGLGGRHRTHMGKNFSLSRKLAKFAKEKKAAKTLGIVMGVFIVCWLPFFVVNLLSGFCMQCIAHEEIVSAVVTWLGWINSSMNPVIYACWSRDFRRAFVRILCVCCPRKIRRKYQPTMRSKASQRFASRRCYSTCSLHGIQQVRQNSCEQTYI
The description is as above.

Assay [4] deals with T2, AgDOP2. In words: IP-One HTRF IP1 accumulation, agonist stimulation, HEK-293.

For the compound `CN(C)CCC=C1c2ccccc2CCc2ccccc21` [Amitriptyline], the 50% inhibitory concentration (IC50) in assay [1] worked out at 80 ± 7 nM; in assay [2] it was 230 ± 20 nM; in assay [3], 50 ± 3 nM.

Regarding `CCNC(=O)N1CCN(CCCC(c2ccc(F)cc2)c2ccc(F)cc2)CC1` [Amperozide], the IC50 in assay [1] amounted to 2600 ± 600 nM; in assay [2] it was 18800 ± 11000 nM; in assay [3], 5100 ± 1000 nM.

Turning to `CN1CC2c3ccccc3Oc3ccc(Cl)cc3C2C1` (stereo not drawn) [Asenapine], the IC50 is 20 ± 4 nM in assay [1], 0.7 ± 0.08 nM in assay [2] and 3 ± 0.5 nM in assay [3].

With `CN(C)CC/C=C1/c2ccccc2Sc2ccc(Cl)cc21` [Chlorprothixene], the IC50 in assay [1] came to 10 ± 2 nM; in assay [2], 400 ± 7 nM.

As for `CSc1ccc2c(c1)C(N1CCN(C)CC1)Cc1ccccc1S2` (stereo not drawn) [Methiothepin], the figures for the IC50 in assay [1], in assay [2] and in assay [3] were 10 ± 5 nM, 140 ± 8 nM and 3 ± 1 nM, respectively.

In the case of `CN1CCc2cc(Cl)c(O)cc2[C@@H](c2ccccc2)C1` [SCH23390], the IC50 stood at 8300 ± 1000 nM in assay [1], 3600 ± 800 nM in assay [2] and 4700 ± 800 nM in assay [3].

As for `NCCc1ccc(O)c(O)c1` [dopamine], the EC50 in assay [4] is 4700 ± 400 nM.

Source of the values: paper PMC4822259 (Parasites & Vectors, 2016).
